# Results: ChEMBL document CHEMBL1641434, “Topical anti-inflammatory activity of boropinic acid and its natural and semi-synthetic derivatives” (2011)
# Columns and labels:
# Format in all cases: functional
# [1] = test system: Mus musculus; test: Antiinflammatory activity in CD1 mouse assessed as inhibition of croton oil-induced ear edema at 0.3 umol administered topically per cm'2 of ear relative to control
# [2] = test system: Mus musculus; test: Antiinflammatory activity in CD1 mouse assessed as inhibition of croton oil-induced ear edema at 0.1 umol administered topically per cm'2 of ear relative to control
# [3] = test system: Mus musculus; test: Antiinflammatory activity in CD1 mouse assessed as inhibition of croton oil-induced ear edema at 1 umol administered topically per cm'2 of ear relative to control
# [4] = test system: Mus musculus; test: Antiinflammatory activity in CD1 mouse assessed as inhibition of croton oil-induced ear edema per cm'2 administered topically
Compound,inhibition (INH) [1],inhibition (INH) [2],inhibition (INH) [3],ID50 [4]
CC(C)=CCOc1ccc(/C=C/C(=O)O)cc1F,39%,,,
CC(C)=CCOc1ccc(/C=C/C(=O)O)cc1Cl,49%,25%,91%,0.26 µmol
CC(C)=CCOc1ccc(/C=C/C(=O)O)cc1Br,19%,,,
CC(C)=CCOc1ccc(/C=C/C(=O)O)cc1,30%,13%,67%,0.5 µmol
CC(Cc1ccc(O)c(O)c1)C(C)Cc1ccc(O)c(O)c1 (stereo not given) [NORDIHYDROGUAIARETIC ACID],33%,19%,65%,0.54 µmol
COc1cc(/C=C/C(=O)O)ccc1OCC=C(C)C [BOROPINIC ACID],36%,12%,55%,0.72 µmol
COc1ccc2c(c1)c(CC(=O)O)c(C)n2C(=O)c1ccc(Cl)cc1 [INDOMETHACIN],62%,26%,87%,0.23 µmol
CC(C)=CCOc1ccc(/C=C/C(=O)O)cc1C,23%,,,
CC(C)=CCOc1ccc(/C=C/C(=O)O)cc1[N+](=O)[O-],68%,33%,91%,0.18 µmol
CC(C)=CCOc1ccc(/C=C/C(=O)O)cc1N,43%,22%,81%,0.33 µmol
CC(C)=CCOc1ccc(/C=C/C(=O)O)cc1I,67%,30%,88%,0.2 µmol
